The target in one experiment is human GYS1 (Homo sapiens (Human), UniProt P13807). Nature of the experiment: GYS1 coupled enzyme assay (PK/LDH). The class given is biochemical. Particulars: recombinant hGYS1/GN1 protein; geometric mean of at least 2 assay runs. An excerpt:
The GYS1 coupled enzyme assay is a kinetic biochemical assay that indirectly quantifies the rate of glycogen synthesis by coupling the conversion of GYS1 substrate UDP-glucose into UDP with downstream enzymatic reactions. UDP is released from UDP-glucose as glucose monomers are linked into the growing glycogen strand by GYS1. The coupled assay then proceeds with pyruvate kinase utilizing UDP and phospho (enol) pyruvate (PEP) to form pyruvate. Lactate dehydrogenase then converts pyruvate and NADH into lactate and NAD+. Oxidation of NADH to NAD+ can be measured continuously with a plate reader by quantifying the decrease in NADH absorbance at 340 nm over time.
Compounds that inhibit the hGYS1 enzyme and, subsequently, the downstream conversion of NADH to NAD+, were tested using assay ready plates (black, clear bottom 384 well plates) in a final DMSO reaction volume of 2.5% DMSO. The Assay Buffer contained 50 mM Tris pH 7.5, 2 mM MgCl2, and 100 mM KCl. Fresh stocks of BSA at a final concentration of 0.02% and TCEP at 1 mM were added before splitting buffer into hGYS1 buffer and substrate buffer. To the hGYS1 buffer, rabbit liver glycogen was added at a final concentration of 0.2% glycogen. Glucose-6-Phosphate was added at 1 mM, recombinant hGYS1/GN1 protein was added at 50 nM to the substrate buffer, phosphoenolpyruvate (PEP) was added at 2 mM, UDP-Glucose was added at 0.8 mM, NADH) was added at 0.6 mM, and Pyruvate Kinase/Lactate Dehydrogenase was added at 20 units/mL. The reaction was initiated by mixing hGYS1 buffer and substrate buffer at a 1:1 ratio. Both buffers were plated using a liquid dispensing device with hGYS1 buffer plated first followed by the substrate buffer. Plates were spun briefly to eliminate air bubbles and are immediately read in continuous mode at an absorbance of 340 nm, for 10 time points in one-minute increments, for a total of 10 minutes. The slope from these 10 time points was normalized to the positive and negative control wells.
Unless otherwise specified, IC50 values are reported as the geometric mean of at least 2 assay runs on separate days. Each run represents the average of a technical replicate, where each compound was assayed twice in the same plate.

The target in experiment [1] is hGYS1 enzyme, glycogen synthesis in HeLa cells (Homo sapiens (Human), UniProt P13807). Nature of the experiment: GYS1 cell based assay (glycogen synthesis in HeLa cells, Glucose-glo). Particulars: starved HeLa cells, 24 h incubation; geometric mean of at least 2 assay runs; read-out: Cellular IC50. An excerpt:
The GYS1 cell based assay is a bioluminescent assay that quantifies the glucose resulting from glycogen digestion; the quantified glucose is an indirect measure of GYS1 glycogen synthesis. Newly synthesized glycogen is digested using Glucoamylase; the resulting glucose is quantified by using the Glucose-glo assay kit from Promega. Glucose-glo works by coupling glucose oxidation and NADH production with a bioluminescent system that is activated with NADH. Glucose is oxidized by Glucose dehydrogenase and the reaction reduces NAD+ to NADH; NADH activates Reductase which reduces a pro-luciferin Reductase Substrate to luciferin. Luciferin is detected in a luciferase reaction using Ultra-Glo rLuciferase and ATP, and the luminesce produced is proportional to the glucose in the sample. The luminescence is measured as a single point read in a plate reader.
Compounds that inhibit the hGYS1 enzyme and, subsequently, the glycogen synthesis in cells, were tested using assay ready plates (white, clear bottom 384 well plates) in a final DMSO reaction volume of 1% DMSO. Compounds in the assay ready plates were mixed with media with no additives, except for 20 mM glucose prior to cell addition. HeLa cells were starved in media with no additives, except for 1× Glutamax for 24 h. Starved HeLa cells were plated, in a 1:1 ratio to the media in the assay ready plate and incubated for 24 h at 37° C. and 5% CO2. Cells were washed in 1×PBS buffer and lysed in lysis buffer containing 50% 1×PBS and 25% 0.3 N HCl of the final volume in the well or reaction volume; cells were incubated with lysis buffer for 10 minutes and quenched with the remaining 25% of the reaction volume that consisted of 450 mM Tris pH 8.0. Lysates were mixed in a 1:1 ratio with Glucoamylase in 100 mM Sodium Acetate buffer, pH 5.3; the mixture was incubated for 1 h at 37° C. The digested lysate was mixed in a 1:1 ratio with Glucose-glo detection mixture as per vendor recommendations (Luciferase detection buffer, Reductase, Reductase substrate, Glucose dehydrogenase, and NAD) in read-out plates (solid white 384-well plates) and incubated for 1 h at RT. The plates were read using a plate reader with luminescence capabilities. Each compound concentration Relative Luminescence Unit (RLU) was averaged and normalized to the average RLU of the positive and negative controls to obtain a percentage inhibition. The normalized data vs. concentration was plotted; to determine the half-maximal concentration (IC50), the Levenberg-Marquardt algorithm was used to fit a Hill equation to the dose response data.
Unless otherwise specified, IC50 values are reported as the geometric mean of at least 2 assay runs on separate days. […] Unless otherwise specified, IC50 values are reported as the geometric mean of at least two assay runs on separate days. Each run represents the average of a technical replicate, where each compound was assayed twice in the same plate.

Structures are written as SMILES.

hGYS1 enzyme, glycogen synthesis in HeLa cells, sequence (P13807 whole entry): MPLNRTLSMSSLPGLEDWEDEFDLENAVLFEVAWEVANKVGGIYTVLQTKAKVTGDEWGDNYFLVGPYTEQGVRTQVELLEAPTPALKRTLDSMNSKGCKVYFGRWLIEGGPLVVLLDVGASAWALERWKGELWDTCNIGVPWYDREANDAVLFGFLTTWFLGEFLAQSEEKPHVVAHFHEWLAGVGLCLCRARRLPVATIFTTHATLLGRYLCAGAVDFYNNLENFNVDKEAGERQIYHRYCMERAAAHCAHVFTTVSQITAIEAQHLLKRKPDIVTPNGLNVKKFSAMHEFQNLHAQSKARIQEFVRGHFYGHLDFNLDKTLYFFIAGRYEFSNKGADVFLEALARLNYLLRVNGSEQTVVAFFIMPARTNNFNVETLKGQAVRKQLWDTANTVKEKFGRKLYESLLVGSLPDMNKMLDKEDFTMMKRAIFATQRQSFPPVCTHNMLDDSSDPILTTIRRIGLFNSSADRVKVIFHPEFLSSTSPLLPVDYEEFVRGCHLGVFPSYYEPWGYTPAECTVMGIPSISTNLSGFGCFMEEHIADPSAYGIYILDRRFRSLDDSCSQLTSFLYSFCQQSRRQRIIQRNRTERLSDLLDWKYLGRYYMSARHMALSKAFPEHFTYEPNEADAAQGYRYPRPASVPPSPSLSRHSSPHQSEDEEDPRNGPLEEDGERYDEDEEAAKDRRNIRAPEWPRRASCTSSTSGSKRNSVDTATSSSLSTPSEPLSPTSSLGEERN
human GYS1, sequence (P13807 whole entry): as above
human GYS1, sequence (P46976 whole entry partner): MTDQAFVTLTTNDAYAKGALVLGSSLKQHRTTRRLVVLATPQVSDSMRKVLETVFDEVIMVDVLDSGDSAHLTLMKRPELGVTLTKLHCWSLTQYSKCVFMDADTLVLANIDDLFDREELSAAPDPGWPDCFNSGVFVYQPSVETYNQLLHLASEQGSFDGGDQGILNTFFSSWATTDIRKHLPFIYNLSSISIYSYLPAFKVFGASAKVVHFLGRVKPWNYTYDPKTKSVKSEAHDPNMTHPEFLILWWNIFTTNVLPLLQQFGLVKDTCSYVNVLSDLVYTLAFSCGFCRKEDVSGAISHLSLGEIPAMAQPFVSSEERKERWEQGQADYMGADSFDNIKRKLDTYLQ

With `O=C(O)[C@H]1CCC[C@H]1C(=O)N[C@@H](c1ccccc1)c1ccc(C2CC2)cn1` [Compound 12, (1S,2R)-2-(((S)-(5-cyclopropylpyridin-2-yl)(phenyl)methyl)carbamoyl)cyclopentane-1-carboxylic acid], the IC50 (in general, the midpoint of a concentration-inhibition curve) at human GYS1 is 1730 nM; in experiment [1], above 65800 nM. In the case of `CC(C)c1ccc([C@@H](NC(=O)[C@@H]2CCC[C@@H]2C(=O)O)c2cccnc2N)cc1` [Compound 29, (1S,2R)-2-(((R)-(2-aminopyridin-3-yl)(4-isopropylphenyl)methyl)carbamoyl)cyclopentane-1-carboxylic acid], the 50% inhibitory concentration (IC50) at human GYS1 amounted to 1520 nM; in experiment [1], 65600 nM.

For the molecule `CC(C)c1ccc([C@@H](NC(=O)[C@@H]2CCC[C@@H]2C(=O)O)c2cccc(-c3ccnn3C)c2)nc1F` [Compound 1, (1S,2R)-2-(((S)-(6-fluoro-5-isopropylpyridin-2-yl)(3-(1-methyl-1H-pyrazol-5-yl)phenyl)methyl)carbamoyl)cyclopentane-1-carboxylic acid], the 50% inhibitory concentration (IC50) at human GYS1 came out at 1440 nM. On to `CC(C)c1ccc([C@@H](NC(=O)C2CC(NC(=O)OC(C)(C)C)CC2C(=O)O)c2ccccc2)cc1` (single isomer, unassigned) [Compound 11, (1S or 1R,2R or 2S,4R or 4S)-4-((tert-butoxycarbonyl)amino)-2-(((S)-(4-isopropylphenyl)(phenyl)methyl)carbamoyl)cyclopentane-1-carboxylic acid], for which the IC50 at human GYS1 was 1940 nM; in experiment [1] it was above 100000 nM. For `CC(C)c1ccc([C@@H](NC(=O)[C@@H]2CCC[C@@H]2C(=O)O)c2cccc(-c3ccn[nH]3)c2)nc1F` [Compound 4, (1S,2R)-2-(((S)-(3-(1H-pyrazol-5-yl)phenyl)(6-fluoro-5-isopropylpyridin-2-yl)methyl)carbamoyl)cyclopentane-1-carboxylic acid], the IC50 on human GYS1 was found to be 178 nM.

On to `O=C(O)[C@H]1CCC[C@H]1C(=O)N[C@@H](c1ccccc1)c1ccc(C2CC2)c(F)n1` [Compound 6, (1S,2R)-2-(((S)-(5-cyclopropyl-6-fluoropyridin-2-yl)(phenyl)methyl)carbamoyl)cyclopentane-1-carboxylic acid], for which the IC50 at human GYS1 is 272 nM. On the same count and under the same terms, to `CC(C)c1ccc([C@@H](NC(=O)[C@@H]2CCC[C@@H]2C(=O)O)c2cccc(-c3ccno3)c2)nc1F` [Compound 3, (1S,2R)-2-(((S)-(6-fluoro-5-isopropylpyridin-2-yl)(3-(isoxazol-5-yl)phenyl)methyl)carbamoyl)cyclopentane-1-carboxylic acid] belongs 630 nM.

With `CC(C)c1ccc([C@@H](NC(=O)[C@@H]2CCC[C@@H]2C(=O)O)c2cccc3c2[nH]c(=O)n3C)cc1F` [Compound 7, (1S,2R)-2-(((R)-(3-fluoro-4-isopropylphenyl)(1-methyl-2-oxo-2,3-dihydro-1H-benzo[d]imidazol-4-yl)methyl)carbamoyl)cyclopentane-1-carboxylic acid], the results for the IC50 (at human GYS1; in experiment [1]) were 884 nM and above 10000 nM, respectively. Consider `CC1(C)CC2(CC([C@@H](NC(=O)C3CCCC3C(=O)O)c3ccccc3)C2)C1` (single isomer, unassigned) [Compound 35, (1S or 1R,2R or 2S)-2-(((R)-(6,6-dimethylspiro[3.3]heptan-2-yl)(phenyl)methyl)carbamoyl)cyclopentane-1-carboxylic acid], for which, at human GYS1, the 50% inhibitory concentration (IC50) came out at 2390 nM. As to `CC(C)c1ccc([C@@H](NC(=O)[C@@H]2CCC[C@@H]2C(=O)O)c2cccc3oc(=O)[nH]c23)cc1` [Compound 10, (1S,2R)-2-(((R)-(4-isopropylphenyl)(2-oxo-2,3-dihydrobenzo[d]oxazol-4-yl)methyl)carbamoyl)cyclopentane-1-carboxylic acid], the figures for the IC50 (at human GYS1; in experiment [1]) were 2930 nM and above 100000 nM, respectively. The like results for `CC(C)c1ccc([C@@H](NC(=O)C2CC(F)CC2C(=O)O)c2ccccc2)cc1` (single isomer, unassigned) [Compound 25, (1S or 1R,2R or 2S,4R or 4S)-4-fluoro-2-(((S)-(4-isopropylphenyl)(phenyl)methyl)carbamoyl)cyclopentane-1-carboxylic acid] were, in that order, 1150 nM and 24500 nM. The like results for `CC(C)c1ccc([C@@H](NC(=O)C2CC(O)CC2C(=O)O)c2ccccc2)cc1` (single isomer, unassigned) [Compound 21, (1S or 1R,2R or 2S,4S or 4R)-4-hydroxy-2-(((S)-(4-isopropylphenyl)(phenyl)methyl)carbamoyl)cyclopentane-1-carboxylic acid] were, in that order, 1960 nM and above 100000 nM. The like results for `CC1(c2ccc([C@@H](NC(=O)[C@@H]3CCC[C@@H]3C(=O)O)c3ccccc3)cc2)CC1` [Compound 14, (1S,2R)-2-(((S)-(4-(1-methylcyclopropyl)phenyl)(phenyl)methyl)carbamoyl)cyclopentane-1-carboxylic acid] were, in that order, 1010 nM and above 60800 nM. Consider `O=C(O)[C@H]1CCC[C@H]1C(=O)N[C@@H](c1ccccc1)c1ccc(C2CC2)cc1` [Compound 38, (1S,2R)-2-(((S)-(4-cyclopropylphenyl)(phenyl)methyl)carbamoyl)cyclopentane-1-carboxylic acid], for which, at human GYS1, the concentration for half-maximal inhibition (IC50) is 1130 nM. As for `CC(C)c1ccc([C@@H](NC(=O)C2CC(O)CC2C(=O)O)c2ccccc2)cc1` (single isomer, unassigned) [Compound 16, (1S or 1R,2R or 2S,4R or 4S)-4-hydroxy-2-(((S)-(4-isopropylphenyl)(phenyl)methyl)carbamoyl)cyclopentane-1-carboxylic acid], the results for the IC50 (at human GYS1; in experiment [1]) were 836 nM and above 100000 nM, respectively. Turning to `CC(C)c1ccc([C@@H](NC(=O)[C@@H]2CCC[C@@H]2C(=O)O)c2ccc3cn[nH]c3c2)nc1F` [Compound 5, (1S,2R)-2-(((S)-(6-fluoro-5-isopropylpyridin-2-yl)(1H-indazol-6-yl)methyl)carbamoyl)cyclopentane-1-carboxylic acid], the half-maximal inhibitory concentration (IC50) on human GYS1 was determined as 84 nM. Same read-out and setting: then `CC(C)c1ccc([C@@H](NC(=O)[C@@H]2CCC[C@@H]2C(=O)O)c2cccc(-c3cnco3)c2)nc1F` [Compound 2, (1S,2R)-2-(((S)-(6-fluoro-5-isopropylpyridin-2-yl)(3-(oxazol-5-yl)phenyl)methyl)carbamoyl)cyclopentane-1-carboxylic acid], with 426 nM.

With `CC(C)c1ccc([C@@H](NC(=O)C2CCC(C(=O)O)C2)c2ccccc2)cc1` (single isomer, unassigned) [Compound 33, (1S or 1R,3R or 3S)-3-(((S)-(4-isopropylphenyl)(phenyl)methyl)carbamoyl)cyclopentane-1-carboxylic acid], the IC50 at human GYS1 was found to be 3130 nM.

The values above are taken from patent US20260021085A1, “CYCLOALKYL CARBOXYLIC ACID DERIVATIVES AS INHIBITORS OF GLYCOGEN SYNTHASE 1 (GYS1) AND METHODS OF USE THEREOF” (Maze Therapeutics, Inc., priority 2022, published 2026).
